Assay results as given in PubChem BioAssay (NCI).
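GI50 is the concentration that inhibits growth by half. TGI is the concentration that stops growth completely.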

How the values were obtained:
Assay in all cases: NCI anticancer screen, dose series, 384-well format
OVCAR-4 ovarian = system: OVCAR-4 ovarian
SK-MEL-28 melanoma = system: SK-MEL-28 melanoma
HCT-116 colon = system: HCT-116 colon
IGROV1 ovarian = system: IGROV1 ovarian
NCI-H322M lung = system: NCI-H322M lung
RPMI-8226 leukemia = system: RPMI-8226 leukemia
NCI-H522 lung = system: NCI-H522 lung
A549 NSCLC = system: A549 NSCLC
NCI/ADR-RES ovarian = system: NCI/ADR-RES ovarian
SN12C renal = system: SN12C renal
A498 renal = system: A498 renal
MCF7 breast = system: MCF7 breast
MALME-3M melanoma = system: MALME-3M melanoma
SNB-75 CNS = system: SNB-75 CNS
HOP-92 NSCLC = system: HOP-92 NSCLC
SK-MEL-2 melanoma = system: SK-MEL-2 melanoma
SF-539 CNS = system: SF-539 CNS
RXF 393 renal = system: RXF 393 renal
SF-295 CNS = system: SF-295 CNS
U251 glioblastoma = system: U251 glioblastoma
UACC-62 melanoma = system: UACC-62 melanoma
LOX IMVI melanoma = system: LOX IMVI melanoma
MDA-MB-468 breast = system: MDA-MB-468 breast
UACC-257 melanoma = system: UACC-257 melanoma
OVCAR-3 ovarian = system: OVCAR-3 ovarian
BT-549 breast = system: BT-549 breast
HT29 colon = system: HT29 colon
SW-620 colon = system: SW-620 colon
MDA-MB-435 melanoma = system: MDA-MB-435 melanoma
T-47D breast = system: T-47D breast
M14 melanoma = system: M14 melanoma
HS 578T breast = system: HS 578T breast
NCI-H226 lung = system: NCI-H226 lung
SF-268 CNS = system: SF-268 CNS
OVCAR-8 ovarian = system: OVCAR-8 ovarian
ACHN renal = system: ACHN renal
KM12 colon = system: KM12 colon
SK-OV-3 ovarian = system: SK-OV-3 ovarian
CAKI-1 renal = system: CAKI-1 renal
HOP-62 NSCLC = system: HOP-62 NSCLC
PC-3 prostate = system: PC-3 prostate
DU-145 prostate = system: DU-145 prostate
MDA-MB-231 breast = system: MDA-MB-231 breast
UO-31 renal = system: UO-31 renal
786-0 renal = system: 786-0 renal
OVCAR-5 ovarian = system: OVCAR-5 ovarian
CCRF-CEM leukemia = system: CCRF-CEM leukemia
HCT-15 colon = system: HCT-15 colon
EKVX NSCLC = system: EKVX NSCLC
NCI-H23 lung = system: NCI-H23 lung
K-562 leukemia = system: K-562 leukemia

`CC(=O)C1(O)Cc2c(O)c3c(c(O)c2C(OC2CC(N)C(O)C(C)O2)C1)C(=O)c1ccccc1C3=O` (stereo not given) showed a GI50 (OVCAR-4 ovarian) of 178 nM, a TGI (OVCAR-4 ovarian) of 482 nM and a GI50 (SK-MEL-28 melanoma) of 93.8 nM. For the same molecule, the TGI (SK-MEL-28 melanoma) was 379 nM, the GI50 (HCT-116 colon) was 14.6 nM and the TGI (HCT-116 colon) was 153 nM. It also gave a GI50 (IGROV1 ovarian) of 125 nM, a TGI (IGROV1 ovarian) of 412 nM and a GI50 (NCI-H322M lung) of 190 nM. It also gave a TGI (NCI-H322M lung) of 572 nM, a TGI (RPMI-8226 leukemia) of 19.1 nM and a GI50 (NCI-H522 lung) of 29.6 nM. The TGI (NCI-H522 lung) was 162 nM, the GI50 (A549 NSCLC) was 13.8 nM and the TGI (A549 NSCLC) was 133 nM. The GI50 (NCI/ADR-RES ovarian) was 480 nM, the TGI (NCI/ADR-RES ovarian) was 2000 nM and the GI50 (SN12C renal) was 15.7 nM. For the same molecule, the TGI (SN12C renal) was 59.7 nM, the GI50 (A498 renal) was 17.5 nM and the TGI (A498 renal) was 146 nM. It also gave a GI50 (MCF7 breast) of 24.1 nM, a TGI (MCF7 breast) of 225 nM and a GI50 (MALME-3M melanoma) of 54.6 nM. For the same molecule, the TGI (MALME-3M melanoma) was 191 nM, the GI50 (SNB-75 CNS) was 33.4 nM and the TGI (SNB-75 CNS) was 144 nM. It also gave a GI50 (HOP-92 NSCLC) of 35.1 nM, a TGI (HOP-92 NSCLC) of 265 nM and a GI50 (SK-MEL-2 melanoma) of 51.9 nM. The TGI (SK-MEL-2 melanoma) was 93.2 nM, the GI50 (SF-539 CNS) was 13.5 nM and the TGI (SF-539 CNS) was 75.5 nM. It also gave a GI50 (RXF 393 renal) of 53.9 nM, a TGI (RXF 393 renal) of 197 nM and a GI50 (SF-295 CNS) of 19 nM. It also gave a TGI (SF-295 CNS) of 51.7 nM, a GI50 (U251 glioblastoma) of 20.3 nM and a TGI (U251 glioblastoma) of 105 nM. For the same molecule, the GI50 (UACC-62 melanoma) was 18 nM, the TGI (UACC-62 melanoma) was 123 nM and the GI50 (LOX IMVI melanoma) was 20.3 nM. The TGI (LOX IMVI melanoma) was 139 nM, the GI50 (MDA-MB-468 breast) was 14.3 nM and the TGI (MDA-MB-468 breast) was 34.3 nM. It also gave a GI50 (UACC-257 melanoma) of 138 nM, a TGI (UACC-257 melanoma) of 296 nM and a GI50 (OVCAR-3 ovarian) of 65.3 nM. It also gave a TGI (OVCAR-3 ovarian) of 257 nM, a GI50 (BT-549 breast) of 20.1 nM and a TGI (BT-549 breast) of 94.4 nM. For the same molecule, the GI50 (HT29 colon) was 27.7 nM, the TGI (HT29 colon) was 106 nM and the GI50 (SW-620 colon) was 13.2 nM. The TGI (SW-620 colon) was 178 nM, the GI50 (MDA-MB-435 melanoma) was 78.6 nM and the TGI (MDA-MB-435 melanoma) was 230 nM. The GI50 (T-47D breast) was 42.1 nM, the TGI (T-47D breast) was 296 nM and the GI50 (M14 melanoma) was 17.5 nM. It also gave a TGI (M14 melanoma) of 114 nM, a GI50 (HS 578T breast) of 11.8 nM and a TGI (HS 578T breast) of 129 nM. It also gave a GI50 (NCI-H226 lung) of 25.7 nM, a TGI (NCI-H226 lung) of 128 nM and a GI50 (SF-268 CNS) of 24.9 nM. It also gave a TGI (SF-268 CNS) of 126 nM, a GI50 (OVCAR-8 ovarian) of 31.6 nM and a TGI (OVCAR-8 ovarian) of 145 nM. It also gave a GI50 (ACHN renal) of 21.3 nM, a TGI (ACHN renal) of 89.6 nM and a GI50 (KM12 colon) of 11.5 nM. For the same molecule, the TGI (KM12 colon) was 36.3 nM, the GI50 (SK-OV-3 ovarian) was 27.7 nM and the TGI (SK-OV-3 ovarian) was 138 nM. The GI50 (CAKI-1 renal) was 30.9 nM, the TGI (CAKI-1 renal) was 169 nM and the GI50 (HOP-62 NSCLC) was 13.3 nM. The TGI (HOP-62 NSCLC) was 34.6 nM, the GI50 (PC-3 prostate) was 60.5 nM and the TGI (PC-3 prostate) was 214 nM. The GI50 (DU-145 prostate) was 11.3 nM, the TGI (DU-145 prostate) was 136 nM and the GI50 (MDA-MB-231 breast) was 19.4 nM. It also gave a TGI (MDA-MB-231 breast) of 106 nM, a GI50 (UO-31 renal) of 76 nM and a TGI (UO-31 renal) of 209 nM. For the same molecule, the GI50 ([…]-0 renal) was 23.4 nM, the TGI (786-0 renal) was 112 nM and the GI50 (OVCAR-5 ovarian) was 44.7 nM. It also gave a TGI (OVCAR-5 ovarian) of 242 nM, a TGI (CCRF-CEM leukemia) of 15.6 nM and a GI50 (HCT-15 colon) of 17.8 nM. For the same molecule, the TGI (HCT-15 colon) was 103 nM, the GI50 (EKVX NSCLC) was 150 nM and the TGI (EKVX NSCLC) was 973 nM. It also gave a GI50 (NCI-H23 lung) of 23.2 nM, a TGI (NCI-H23 lung) of 90.1 nM and a GI50 (K-562 leukemia) of 15 nM. The TGI (K-562 leukemia) was 116 nM.
